Seven compounds from patent US9932309B2, “2-oxo-3,4-dihydropyridine-5-carboxylates and their use” (UNIVERSITE DE LILLE 2 DROIT ET SANTE, priority 2014, dated 2018) can be followed below.

Assay [1] has as its target T1, hTGR5 (Homo sapiens, UniProt Q8TDU6).
T1 construct: expressed in transfected cells; host or cells: HEK293 cells, transiently co-transfected with the pCRE TA-Luciferase reporter
T1 sequence (Q8TDU6 1-330): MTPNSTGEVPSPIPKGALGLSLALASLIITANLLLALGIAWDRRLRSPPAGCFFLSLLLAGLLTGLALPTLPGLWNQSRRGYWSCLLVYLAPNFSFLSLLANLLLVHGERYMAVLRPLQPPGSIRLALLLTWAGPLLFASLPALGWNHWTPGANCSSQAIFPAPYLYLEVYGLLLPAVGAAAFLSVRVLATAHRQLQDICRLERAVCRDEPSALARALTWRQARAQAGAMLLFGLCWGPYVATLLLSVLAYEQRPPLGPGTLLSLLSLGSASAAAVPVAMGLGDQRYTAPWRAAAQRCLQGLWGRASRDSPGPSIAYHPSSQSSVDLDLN
In words: TGR5/CRE Luciferase Assay (hTGR5). Particulars: for EC50: HEK 293 cells co-transfected with pCMV tag4b-TGR5h and pCRE TA-Luciferase, overnight incubation; for hTGR5 % trans: percentage of the 10 μM LCA value, HEK 293 cells transfected with hTGR5. It is filed as cell-based. In short, it runs like this:
(§1)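 Transiently co-transfected HEK293 cells expressing human or mouse TGR5 plus a CRE-luciferase reporter were incubated overnight with rising compound concentrations in duplicate. Luminescence reported cAMP-driven expression; 10 μM lithocholic acid served as positive reference. Curves fitted to a 4-parameter logistic.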

Assay [2] addresses T2, mTGR5 (Mus musculus, UniProt Q80SS6).
T2 construct: expressed in transfected cells; host or cells: HEK293 cells, transiently co-transfected with the pCRE TA-Luciferase reporter
T2 sequence (Q80SS6 1-329): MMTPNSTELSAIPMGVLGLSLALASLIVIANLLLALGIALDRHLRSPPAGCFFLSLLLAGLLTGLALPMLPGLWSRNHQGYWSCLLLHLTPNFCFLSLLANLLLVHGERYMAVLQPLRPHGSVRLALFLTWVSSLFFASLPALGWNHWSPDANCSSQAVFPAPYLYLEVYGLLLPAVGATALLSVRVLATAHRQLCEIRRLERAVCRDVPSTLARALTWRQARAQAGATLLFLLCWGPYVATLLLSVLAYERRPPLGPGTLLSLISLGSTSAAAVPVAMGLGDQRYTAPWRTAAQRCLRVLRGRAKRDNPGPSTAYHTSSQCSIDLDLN
In words: TGR5/CRE Luciferase Assay (mTGR5). It is filed as cell-based. The following applies: for EC50: HEK 293 cells co-transfected with pCMV AC6-TGR5m and pCRE TA-Luciferase, overnight incubation; for mTGR5 % trans: percentage of the 10 μM LCA value, HEK 293 cells transfected with mTGR5. The method in brief:
as §1

Regarding `CC1=C(C(=O)OCc2ccc(OCCS(=O)(=O)O)cc2)[C@H](c2ccc(Cl)cc2)CC(=O)N1C[C@H]1CCCO1.N` [Example 144, Ammonium 2-[4-[[(4S)-4-(4-chlorophenyl)-6-methyl-2-oxo-1-[[(2R)-tetrahydrofuran-2-yl]methyl]-3,4-dihydropyridine-5-carbonyl]oxymethyl]phenoxy]ethanesulfonate], in assay [1], the EC50 (as a rule, the concentration needed to bring the measured effect to its halfway point) came to 60 nM and the hTGR5 % trans was determined as 95%. In assay [2], this compound yielded an EC50 of 100 nM and a mTGR5 % trans of 158%.
In assay [1], `COc1ccccc1COC(=O)C1=C(C)N(C[C@@H]2CCCO2)C(=O)C[C@@H]1c1ccc(Cl)nc1` [Example 162, (2-M ethoxyphenyl)-methyl-(4R)-4-(6-chloro-3-pyridyl)-6-methyl-2-oxo-1-[[(2S)-tetrahydrofuran-2-yl]methyl]-3,4-dihydropyridine-5-carboxylate] gave an EC50 of 320 nM and a hTGR5 % trans of 92%. In assay [2], this compound returned a mTGR5 % trans of 86%.
The corresponding values for `COc1ccccc1COC(=O)C1=C(C)N(C[C@@H]2CCCO2)C(=O)C[C@H]1c1ccc(Cl)nc1` [Example 163, (2-Methoxyphenyl)methyl-(4S)-4-(6-chloro-3-pyridyl)-6-methyl-2-oxo-1-[[(2S)-tetra hydrofuran-2-yl]methyl]-3,4-dihydropyridine-5-carboxylate] are 17 nM, 105% and 102%.
In the case of `COc1ccccc1COC(=O)C1=C(C)N(C[C@H]2CCCO2)C(=O)C[C@@H]1c1ccc(Cl)nc1` [Example 165, (2-M ethoxyphenyl)methyl-(4R)-4-(6-chloro-3-pyridyl)-6-methyl-2-oxo-1-[[(2R)-tetrahydrofuran-2-yl]methyl]-3,4-dihydropyridine-5-carboxylate], in assay [1], a half-maximal response (EC50) required 130 nM and the hTGR5 % trans came to 99%. For the same compound, in assay [2], the mTGR5 % trans is reported as 71%.
For the compound `CC1=C(C(=O)OCc2ccc(OCCCS(=O)(=O)O)cc2)[C@H](c2ccc(Cl)nc2)CC(=O)N1C[C@H]1CCCO1.N` [Example 166, Ammonium,3-[4-[[(4S)-4-(6-chloro-3-pyridyl)-6-methyl-2-oxo-1-[[(2R)-tetrahydrofuran-2-yl]methyl]-3,4-dihydropyridine-5-carbonyl]oxymethyl]phenoxy]propane-1-sulfonate], in assay [1], the midpoint of the response, the EC50, lay at 160 nM and the hTGR5 % trans worked out at 103%. Moreover, in assay [2], the EC50 worked out at 100 nM and the mTGR5 % trans was 113%.
With `CC1=C(C(=O)OCc2ccc(OCCCS(=O)(=O)O)cc2)[C@H](c2ccc(Cl)cc2)CC(=O)N1C[C@H]1CCCO1.N` [Example 168, Ammonium,3-[4-[[(4S)-4-(4-chlorophenyl)-6-methyl-2-oxo-1-[[(2R)-tetrahydrofuran-2-yl]methyl]-3,4-dihydropyridine-5-carbonyl]oxymethyl]phenoxy]propane-1-sulfonate], in assay [1], the EC50 was determined as 65 nM and the hTGR5 % trans is reported as 106%. In assay [2], this compound showed an EC50 of 26 nM and a mTGR5 % trans of 120%.
In assay [1], `CC1=C(C(=O)OCc2ccc(OCCCCS(=O)(=O)O)cc2)[C@H](c2ccc(Cl)cc2)CC(=O)N1C[C@H]1CCCO1` [Example 169, Ammonium; 4-[4-[[(4S)-4-(4-chlorophenyl)-6-methyl-2-oxo-1-[[(2R)-tetrahydrofuran-2-yl]methyl]-3,4-dihydropyridine-5-carbonyl]oxymethyl]phenoxy]butane-1-sulfonate] yielded an EC50 of 30 nM and a hTGR5 % trans of 103%. In assay [2], this compound showed an EC50 of 9 nM and a mTGR5 % trans of 103%.
